Where “and” joins values, the source holds several entries; their conditions need not be identical. Equal values may be shown once. Where a name gives a salt, the structure may show the parent alone. Read-outs that look alike come from different tables or passages of the source.
Legend:
head twitch response [1] = settings: cited from earlier work
5-HT2A receptor [2] = settings: described by Nichols; cited from earlier work
head twitch response [3] = assay: Mouse head twitch response (HTR) assay (literature); type: in vivo; settings: from the HTR ED50 values
human 5-HT2A receptor [4] = target: T1, human 5-HT2A receptor (Homo sapiens, UniProt P28223); assay: Ca2+ mobilization in CHO h5-HT2A cells; type: cell-based
T1 construct: expressed in transfected cells; host or cells: CHO (CHO-5-HT2A cell line)
T1 sequence (P28223 whole entry): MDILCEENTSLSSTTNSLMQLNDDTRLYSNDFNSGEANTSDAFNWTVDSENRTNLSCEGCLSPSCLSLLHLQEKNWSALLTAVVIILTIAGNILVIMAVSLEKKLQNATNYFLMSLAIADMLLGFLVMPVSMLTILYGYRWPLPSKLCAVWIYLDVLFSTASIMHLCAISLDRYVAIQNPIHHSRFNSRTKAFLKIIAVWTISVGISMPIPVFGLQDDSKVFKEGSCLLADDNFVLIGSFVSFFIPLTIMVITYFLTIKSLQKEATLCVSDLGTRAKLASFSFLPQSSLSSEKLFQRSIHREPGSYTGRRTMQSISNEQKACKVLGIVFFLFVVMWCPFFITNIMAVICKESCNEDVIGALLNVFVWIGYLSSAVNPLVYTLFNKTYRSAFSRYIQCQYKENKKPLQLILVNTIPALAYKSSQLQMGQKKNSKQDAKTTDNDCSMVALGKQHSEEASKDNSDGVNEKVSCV

human 5-HT2A receptor [5] = target: T1, human 5-HT2A receptor; assay: Competition binding to the human 5-HT2A receptor ([3H]ketanserin, CHO-5-HT2A membranes)
human 5-HT2C receptor [6] = target: T2, human 5-HT2C receptor (Homo sapiens, UniProt P28335); assay: Ca2+ mobilization in HeLa h5-HT2C cells; type: cell-based
T2 construct: expressed in transfected cells; host or cells: HeLa (HeLa-5-HT2C cell line)
T2 sequence (P28335 33-458): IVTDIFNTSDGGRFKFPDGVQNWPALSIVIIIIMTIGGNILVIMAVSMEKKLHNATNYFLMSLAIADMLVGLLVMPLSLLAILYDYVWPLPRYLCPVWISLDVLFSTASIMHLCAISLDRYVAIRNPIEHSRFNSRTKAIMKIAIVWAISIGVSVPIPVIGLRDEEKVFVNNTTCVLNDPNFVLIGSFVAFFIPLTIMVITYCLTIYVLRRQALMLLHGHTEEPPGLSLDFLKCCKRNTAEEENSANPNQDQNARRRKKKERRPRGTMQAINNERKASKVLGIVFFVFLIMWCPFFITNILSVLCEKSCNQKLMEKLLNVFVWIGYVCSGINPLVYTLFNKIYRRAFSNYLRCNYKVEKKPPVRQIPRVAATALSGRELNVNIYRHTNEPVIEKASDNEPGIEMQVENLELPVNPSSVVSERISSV

human 5-HT2B receptor = human 5-HT2B receptor (Homo sapiens, UniProt P41595); assay: Competition binding to the human 5-HT2B receptor ([3H]LSD, CHO-5-HT2B membranes)
Sequence of human 5-HT2B receptor (P41595 whole entry): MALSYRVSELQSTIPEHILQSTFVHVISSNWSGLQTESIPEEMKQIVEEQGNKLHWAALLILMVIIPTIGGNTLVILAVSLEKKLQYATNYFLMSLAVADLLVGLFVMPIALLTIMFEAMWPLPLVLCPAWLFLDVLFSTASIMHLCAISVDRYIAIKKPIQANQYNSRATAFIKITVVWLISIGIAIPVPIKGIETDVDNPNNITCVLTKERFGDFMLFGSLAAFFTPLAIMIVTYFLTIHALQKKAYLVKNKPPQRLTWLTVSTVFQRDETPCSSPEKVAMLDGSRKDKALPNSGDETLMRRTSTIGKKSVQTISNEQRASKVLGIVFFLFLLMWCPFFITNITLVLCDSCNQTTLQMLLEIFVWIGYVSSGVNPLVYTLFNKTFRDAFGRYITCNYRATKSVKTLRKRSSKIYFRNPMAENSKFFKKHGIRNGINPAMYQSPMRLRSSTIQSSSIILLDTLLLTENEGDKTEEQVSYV

5-HT2A receptor [7] = settings: described by Nichols; cited from earlier work; remark: listed apart in the source
human 5-HT2C receptor [8] = target: T2, human 5-HT2C receptor; assay: Competition binding to the human 5-HT2C receptor ([3H]mesulergine, HeLa-5-HT2C membranes)
5-HT2C receptor [9] = target: 5-HT2C receptor; parameters: method as in PMID 27216487; settings: reported affinity; cited from earlier work
5-HT2A receptor [10] = target: 5-HT2A receptor; parameters: method as in PMID 27216487; settings: reported affinity; cited from earlier work
5-HT2C receptor [11] = settings: cited from earlier work
5-HT2A receptors = settings: cited from earlier work
[12] = relative efficacy, % of response to 5-HT

Compound `Oc1c(Br)cc(Br)cc1CNCCc1c[nH]c2ccccc12` (as salt: hydrochloride) [Compound 35, N-(3,5-Dibromo-2-hydroxybenzyl)-[2-(1H-indol-3-yl)ethyl]amine] has a melting point of 183 to 184 °C.

`COc1cccc(CNCCc2c[nH]c3ccccc23)c1O` (as salt: succinate) [Compound 19, N-(2-Hydroxy-3-methoxybenzyl)-[2-(1H-indol-3-yl)ethyl]amine] showed a melting point of 109 to 111 °C.

`Oc1c(Br)cccc1CNCCc1c[nH]c2ccccc12` (as salt: succinate) [Compound 21, N-(3-Bromo-2-hydroxybenzyl)-[2-(1H-indol-3-yl)ethyl]amine] gave a melting point of 141 to 142 °C.

In the case of `Oc1c(F)cccc1CNCCc1c[nH]c2ccccc12` (as salt: succinate) [Compound 22, N-(3-Fluoro-2-hydroxybenzyl)-[2-(1H-indol-3-yl)ethyl]amine], the melting point is reported as 151 to 152 °C.

With `Oc1cccc(F)c1CNCCc1c[nH]c2ccccc12` (as salt: succinate) [Compound 34, N-(6-Fluoro-2-hydroxybenzyl)-[2-(1H-indol-3-yl)ethyl]amine] the melting point was 159 to 161 °C.

For `COc1cc(CCNCc2ccccc2OC)c(OC)cc1I` [Compound 25I-NBOMe, 4-iodo-2,5-dimethoxy-N-(2-methoxybenzyl)phenethylamine, reference compound], the “ED50 in the mouse head twitch response (HTR) assay” value (head twitch response [1]) is given as 0.078 mg/kg, the Ki (5-HT2A receptor [2]) is given as 0.52 nM and the “fold higher in vivo potency (HTR) than compound 38” value (head twitch response [3]) is given as 40 fold.

In the case of `COc1ccc2[nH]cc(CCNCc3ccccc3OC)c2c1` [Compound 38, N-(2-Methoxybenzyl)-[2-(5-methoxy-1H-indol-3-il)ethyl]amine], the “ED50 in the mouse head twitch response (HTR) assay” value (head twitch response [1]) is given as 3.15 mg/kg, the “5-HT2A pEC50” value (human 5-HT2A receptor [4]; Ca2+ mobilization, pEC50 ± SEM) is given as 8.70 ± 0.20 and the EC50 (human 5-HT2A receptor [4]; Ca2+ mobilization, no unit in the table, nM, read-out: 5-HT2A EC50 (in parentheses) (converted)) is given as 2 nM and 1.99 nM. The “Selectivity 5-HT2A/2C (functional)” value (human 5-HT2A receptor [4]; from EC50 values, Table 2) was 1.91, the “5-HT2A % Emax” value (human 5-HT2A receptor [4]; [12]) was 83.66 ± 3.42% and the Emax (human 5-HT2A receptor [4]; [12]) was 84%. For the same compound, the “Selectivity 5-HT2A/2C (binding)” value (human 5-HT2A receptor [5]; from Ki values, Table 1) was 1.55, the Ki (human 5-HT2A receptor [5]; human receptor, [3H]ketanserin displacement, no unit in the table, nM, read-out: 5-HT2A Ki (in parentheses) (converted)) was 44.7 nM and the Ki (5-HT2A receptor [2]) was 16.6 nM. The EC50 (human 5-HT2C receptor [6]; Ca2+ mobilization, no unit in the table, nM, read-out: 5-HT2C EC50 (in parentheses) (converted)) was 3.8 nM, the Emax (human 5-HT2C receptor [6]; HeLa, read-out: 5-HT2C % Emax) was 88.7 ± 4.22% and the “Selectivity 5-HT2C/2A (functional, in parentheses)” value (human 5-HT2C receptor [6]; from EC50 values, Table 2) was 0.53. The Ki (human 5-HT2B receptor) was 15.9 nM, the “5-HT2A Emax” value (5-HT2A receptor [7]) was 81% and the EC50 (5-HT2A receptor [7]) was 1.9 nM. The “Selectivity 5-HT2C/2A (binding, in parentheses)” value (human 5-HT2C receptor [8]; from Ki values, Table 1) was 0.65 and the Ki (human 5-HT2C receptor [8]; human receptor, [3H]mesulergine displacement, no unit in the table, nM, read-out: 5-HT2C Ki (in parentheses) (converted)) was 69.2 nM.

For `CC(C)N(CCc1c[nH]c2ccccc12)C(C)C` [N,N-diisopropyltryptamine], the Ki (5-HT2C receptor [9]) is given as 6500 nM and the Ki (5-HT2A receptor [10]) is given as 1200 nM.

For `CN(C)CCc1c[nH]c2ccccc12` [N,N-dimethyltryptamine], the Ki (5-HT2C receptor [9]) is listed as 424 nM and the Ki (5-HT2A receptor [10]) is listed as 237 nM.

In the case of `COc1ccc2[nH]cc(CCN(C)C(C)C)c2c1` [N-isopropyl-N-methyl-5-methoxytryptamine], the Ki (5-HT2C receptor [9]) is given as 1300 nM and the Ki (5-HT2A receptor [10]) is given as 165 nM.

In the case of `C[C@H]1CNCCc2ccc(Cl)cc21` [lorcaserin, 1(R)-8-chloro-1-methyl.2,3,4,5-tetrahydro-(1H)-3-benzazepine], the “agonist character at 5-HT2C (in words)” value (5-HT2C receptor [11]) is listed as “full 5-HT2C agonist”, the “pEC50(2A)” value (5-HT2A receptors; Fig 6) is listed as 6.8 and the “efficacy at 5-HT2A receptors” value (5-HT2A receptors; partial agonist) is listed as “about 70%”.

Source: paper PMC6328172, “5-HT2 receptor binding, functional activity and selectivity in N-benzyltryptamines” (PLoS ONE, 2019)
